Source: patent US12171806B2, “Therapeutic regimens and methods for lowering blood glucose and/or body weight using GLP-1R and GCGR balanced agonists” (priority 2021, dated 2024)

Assays:
[1] = over 26 weeks; cited from earlier work
[2] = in 6 weeks; cited from earlier work
[3] = molecular target: T1, glucagon (human, cloned into CHO cells) receptor (Homo sapiens, UniProt P47871); assay: cAMP stimulation cellular assay (DiscoveRx LeadHunter), glucagon receptor; format: cell-based; conditions: 0.1% BSA
T1 construct: host or cells: CHO cells
T1 sequence (P47871 26-477): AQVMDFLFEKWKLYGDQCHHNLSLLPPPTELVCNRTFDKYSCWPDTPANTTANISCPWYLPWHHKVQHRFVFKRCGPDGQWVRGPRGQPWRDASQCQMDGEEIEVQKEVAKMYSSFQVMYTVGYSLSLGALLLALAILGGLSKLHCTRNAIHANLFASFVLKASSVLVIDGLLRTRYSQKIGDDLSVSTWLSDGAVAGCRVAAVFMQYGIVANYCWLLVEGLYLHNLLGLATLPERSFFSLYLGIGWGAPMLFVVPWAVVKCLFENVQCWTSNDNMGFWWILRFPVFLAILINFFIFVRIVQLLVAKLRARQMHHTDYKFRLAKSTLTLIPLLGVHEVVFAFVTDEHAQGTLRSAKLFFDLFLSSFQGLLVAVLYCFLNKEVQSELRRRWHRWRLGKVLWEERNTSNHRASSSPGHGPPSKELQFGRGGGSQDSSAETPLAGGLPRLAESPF

| SMILES | weight loss [1] | reduction in liver fat content / hepatic fat fraction [2] | EC50 [3] |
| --- | --- | --- | --- |
| CCCCCCCCCCCCCCCC(=O)N[C@@H](CCC(=O)NCCCC[C@H](NC(=O)[C@H](CC(=O)O)NC(=O)[C@H](CO)NC(=O)[C@@H](NC(=O)[C@H](Cc1ccccc1)NC(=O)[C@@H](NC(=O)CNC(=O)[C@H](CCC(N)=O)NC(=O)[C@H](CO)NC(=O)[C@@H](N)Cc1c[nH]cn1)[C@@H](C)O)[C@@H](C)O)C(=O)N[C@@H](CO)C(=O)N[C@@H](CCC(=O)O)C(=O)N[C@@H](Cc1ccc(O)cc1)C(=O)N[C@@H](CC(C)C)C(=O)N[C@@H](CC(=O)O)C(=O)N[C@@H](CO)C(=O)N[C@@H](CCC(=O)O)C(=O)N[C@@H](CCCNC(=N)N)C(=O)N[C@@H](C)C(=O)N[C@@H](CCCNC(=N)N)C(=O)N[C@@H](CC(=O)O)C(=O)N[C@@H](Cc1ccccc1)C(=O)N[C@H](C(=O)N[C@@H](C)C(=O)N[C@@H](Cc1c[nH]c2ccccc12)C(=O)N[C@@H](CC(C)C)C(=O)N[C@@H](CCC(=O)O)C(=O)N[C@@H](C)C(=O)NCC(=O)NCC(=O)O)C(C)C)C(=O)O [cotadutide] | 5.4% | 39% | – |
| CC[C@H](C)[C@H](NC(=O)[C@H](Cc1ccccc1)NC(=O)[C@H](CCC(=O)O)NC(=O)[C@@H]1CCCCNC(=O)CC[C@H](NC(=O)[C@H](CC(=O)O)NC(=O)[C@H](CC(C)C)NC(=O)[C@H](Cc2ccc(O)cc2)NC(=O)[C@H](CCCCN)NC(=O)[C@H](CO)NC(=O)[C@H](Cc2ccc(O)cc2)NC(=O)[C@H](CC(=O)O)NC(=O)[C@H](CO)NC(=O)[C@@H](NC(=O)[C@H](Cc2ccccc2)NC(=O)[C@@H](NC(=O)CNC(=O)[C@H](CCC(N)=O)NC(=O)C(C)(C)NC(=O)[C@@H](N)Cc2c[nH]cn2)[C@@H](C)O)[C@@H](C)O)C(=O)N[C@@H](CCC(N)=O)C(=O)N[C@@H](C)C(=O)N[C@@H](C)C(=O)N1)C(=O)N[C@@H](CCCCNC(=O)[C@H]1O[C@@H](OCCCCCCCCCCCCCCCCCC(=O)O)[C@H](O)[C@@H](O)[C@@H]1O)C(=O)N[C@@H](Cc1c[nH]c2ccccc12)C(=O)N[C@@H](CC(C)C)C(=O)N[C@@H](CC(C)C)C(=O)N[C@@H](CCC(N)=O)C(=O)N[C@H](C(N)=O)[C@@H](C)O [EU-A1872] | – | – | 2.62 nM |
